Reference: patent publication US20260285850A1, “SUBSTITUTED OXAZOLIDINONES AND IMIDAZOLINONES AS HERBICIDES” (FMC CORPORATION, priority 2023, published 2026)

Key:
Format in all cases: in vivo
[1] = tested on: wheat (Triticum aestivum); test: Test A postemergence application, visual injury rating 0-100; conditions: 10 days
Outline: (§1)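 Visual injury ratings (0, no effect; 100, complete control) were assigned relative to untreated plants 10 days after treatment. Test chemicals, formulated with a surfactant-containing non-phytotoxic solvent, were applied in loam-sand soil either as a directed soil spray before emergence or to emerged plants, and plants were kept in a greenhouse.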

[2] = tested on: blackgrass (Alopecurus myosuroides); test: as above; conditions: 10 days
Outline: as §1

[3] = tested on: galium (catchweed bedstraw, Galium aparine); test: as above; conditions: 10 days
Outline: as §1

[4] = tested on: ryegrass, Italian (italian ryegrass, Lolium multiflorum); test: as above; conditions: 10 days
Outline: as §1

[5] = tested on: horseweed (Erigeron canadensis); test: as above; conditions: 10 days
Outline: as §1

[6] = tested on: green foxtail (Setaria viridis); test: as above; conditions: 10 days
Outline: as §1

[7] = tested on: oat, wild (wild oat, Avena fatua); test: as above; conditions: 10 days
Outline: as §1

[8] = tested on: ragweed (common ragweed, Ambrosia artemisiifolia); test: as above; conditions: 10 days
Outline: as §1

[9] = tested on: palmer (palmer amaranth, palmer pigweed, Amaranthus palmeri); test: as above; conditions: 10 days
Outline: as §1

soybean (Glycine max) [10] = test: as above; conditions: 10 days
Outline: as §1

corn (Zea mays) [11] = test: as above; conditions: 10 days
Outline: as §1

[12] = tested on: barnyardgrass (Echinochloa crus-galli); test: as above; conditions: 10 days
Outline: as §1

kochia (Bassia scoparia) [13] = test: as above; conditions: 10 days
Outline: as §1

[14] = tested on: sedge, umbrella (small-flower umbrella sedge, Cyperus difformis); test: Test B flooded paddy test, visual plant response rating 0-100; conditions: 250 g ai/ha, Flood, applied to paddy water, evaluated after 13 days
Outline: (§2)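 Visual scores versus untreated controls were recorded 13 days after treatment of greenhouse-held plants. At the 2-leaf stage, pots were flooded 3 cm above the soil surface and compounds added straight to the water.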

[15] = tested on: ducksalad (Heteranthera limosa); test: as above; conditions: 250 g ai/ha, Flood, applied to paddy water, evaluated after 13 days
Outline: as §2

[16] = tested on: barnyardgrass (Echinochloa crusgalli); test: as above; conditions: 250 g ai/ha, Flood, applied to paddy water, evaluated after 13 days
Outline: as §2

rice (Oryza sativa) = test: as above; conditions: 250 g ai/ha, Flood, applied to paddy water, evaluated after 13 days
Outline: as §2

[17] = tested on: wheat (Triticum aestivum); test: Test A preemergence soil spray, visual injury rating 0-100; conditions: 10 days, 0 = no effect, 100 = complete control
Outline: as §1

[18] = tested on: blackgrass (Alopecurus myosuroides); test: as above; conditions: 10 days, 0 = no effect, 100 = complete control
Outline: as §1

[19] = tested on: ryegrass, Italian (italian ryegrass, Lolium multiflorum); test: as above; conditions: 10 days, 0 = no effect, 100 = complete control
Outline: as §1

[20] = tested on: green foxtail (Setaria viridis); test: as above; conditions: 10 days, 0 = no effect, 100 = complete control
Outline: as §1

[21] = tested on: oat, wild (wild oat, Avena fatua); test: as above; conditions: 10 days, 0 = no effect, 100 = complete control
Outline: as §1

[22] = tested on: ragweed (common ragweed, Ambrosia artemisiifolia); test: as above; conditions: 10 days, 0 = no effect, 100 = complete control
Outline: as §1

[23] = tested on: palmer (palmer amaranth, palmer pigweed, Amaranthus palmeri); test: as above; conditions: 10 days, 0 = no effect, 100 = complete control
Outline: as §1

soybean (Glycine max) [24] = test: as above; conditions: 10 days, 0 = no effect, 100 = complete control
Outline: as §1

corn (Zea mays) [25] = test: as above; conditions: 10 days, 0 = no effect, 100 = complete control
Outline: as §1

[26] = tested on: barnyardgrass (Echinochloa crus-galli); test: as above; conditions: 10 days, 0 = no effect, 100 = complete control
Outline: as §1

kochia (Bassia scoparia) [27] = test: as above; conditions: 10 days, 0 = no effect, 100 = complete control
Outline: as §1

[28] = 31 g ai/ha, postemergence, 0 = no effect, 100 = complete control
[29] = Postemergence, 125 g ai/ha, 0 is no effect, 100 is complete control

COC(=O)C1CC(NC(=O)C2(C)CN(c3cc(F)cc(F)c3)C(=O)O2)CO1 (stereo not shown) [Compound 29]
50: Galium plant response rating (0-100) [3, 28] | Ryegrass, Italian plant response rating (0-100) [4, 28] | Soybean plant response rating (0 to 100 scale) (soybean (Glycine max) [10]; [29]) | Blackgrass plant response rating (0 to 100 scale) ([18]; 125 g ai/ha)
30: Ragweed plant response rating (0-100) [8, 28] | Ragweed plant response rating (0 to 100 scale) [8, 29] | Ryegrass, Italian plant response rating (0 to 100 scale) ([19]; 125 g ai/ha)
40: Kochia plant response rating (0 to 100 scale) (kochia (Bassia scoparia) [13]; [29])
10: Barnyardgrass plant response rating (0-100) [12, 28]
0: Horseweed plant response rating (0-100) [5, 28] | Foxtail, Green plant response rating (0-100) [6, 28] | Amaranth, Palmer plant response rating (0-100) [9, 28] | Soybean plant response rating (0-100) (soybean (Glycine max) [10]; [28]) | Corn plant response rating (0-100) (corn (Zea mays) [11]; [28]) | Plant response rating, Sedge, Umbrella (0 to 100 scale, 0 is no effect and 100 is complete control) [14] | Plant response rating, Ducksalad (0 to 100 scale, 0 is no effect and 100 is complete control) [15] | Plant response rating, Barnyardgrass (0 to 100 scale, 0 is no effect and 100 is complete control) [16] | Plant response rating, Rice (0 to 100 scale, 0 is no effect and 100 is complete control) (rice (Oryza sativa)) | Wheat plant response rating (0-100) ([17]; 31 g ai/ha) | Blackgrass plant response rating (0-100) ([18]; 31 g ai/ha) | Ryegrass, Italian plant response rating (0-100) ([19]; 31 g ai/ha) | Foxtail, Green plant response rating (0-100) ([20]; 31 g ai/ha) | Foxtail, Green plant response rating (0 to 100 scale) ([20]; 125 g ai/ha) | Oat, Wild plant response rating (0-100) ([21]; 31 g ai/ha) | Ragweed plant response rating (0-100) ([22]; 31 g ai/ha) | Ragweed plant response rating (0 to 100 scale) ([22]; 125 g ai/ha) | Amaranth, Palmer plant response rating (0-100) ([23]; 31 g ai/ha) | Amaranth, Palmer plant response rating (0 to 100 scale) ([23]; 125 g ai/ha) | Soybean plant response rating (0-100) (soybean (Glycine max) [24]; 31 g ai/ha) | Soybean plant response rating (0 to 100 scale) (soybean (Glycine max) [24]; 125 g ai/ha) | Corn plant response rating (0-100) (corn (Zea mays) [25]; 31 g ai/ha) | Corn plant response rating (0 to 100 scale) (corn (Zea mays) [25]; 125 g ai/ha) | Barnyardgrass plant response rating (0-100) ([26]; 31 g ai/ha) | Kochia plant response rating (0-100) (kochia (Bassia scoparia) [27]; 31 g ai/ha) | Kochia plant response rating (0 to 100 scale) (kochia (Bassia scoparia) [27]; 125 g ai/ha)
70: Corn plant response rating (0 to 100 scale) (corn (Zea mays) [11]; [29])
80: Wheat plant response rating (0-100) [1, 28] | Galium plant response rating (0 to 100 scale) [3, 29] | Foxtail, Green plant response rating (0 to 100 scale) [6, 29] | Oat, Wild plant response rating (0-100) [7, 28] | Barnyardgrass plant response rating (0 to 100 scale) [12, 29] | Wheat plant response rating (0 to 100 scale) ([17]; 125 g ai/ha)
60: Amaranth, Palmer / Pigweed, Palmer plant response rating (0 to 100 scale) [9, 29] | Oat, Wild plant response rating (0 to 100 scale) ([21]; 125 g ai/ha)
90: Wheat plant response rating (0 to 100 scale) [1, 29] | Blackgrass plant response rating (0-100) [2, 28] | Blackgrass plant response rating (0 to 100 scale) [2, 29] | Ryegrass, Italian plant response rating (0 to 100 scale) [4, 29] | Oat, Wild plant response rating (0 to 100 scale) [7, 29]
20: Horseweed plant response rating (0 to 100 scale) [5, 29] | Kochia plant response rating (0-100) (kochia (Bassia scoparia) [13]; [28]) | Barnyardgrass plant response rating (0 to 100 scale) ([26]; 125 g ai/ha)
